Laboratory results as given in patent US8829190B2, “Triazolopyridines as phosphodiesterase inhibitors for treatment of dermal diseases” (Leo Pharma A/S, priority 2007, dated 2014).

Experiments:
Human recombinant PDE4 = Human recombinant PDE4 (Homo sapiens (Human), UniProt Q08499); experiment: PDE4 assay (SPA, cAMP cleavage); format: biochemical; settings: human recombinant PDE4, 1 hour incubation, cAMP 1×10^-5M
Protocol: At the end of the incubation, the cleavage of the substrate was evaluated by the binding of the AMP product to SPA beads, which generate chemo luminescence when bound to the radioactive tracer. The AMP product inhibited the binding of the radioactive tracer to the beads, and the luminescent signal was competed.

[1] = test system: Human peripheral blood mononuclear cells (PBMC); experiment: TNFα release in LPS-stimulated PBMC; format: cell-based; settings: 30 minutes pre-incubation, lipopolysaccharide stimulation 18 hours, read-out: TNFa IC50
Protocol: Human peripheral blood mononuclear cells (PBMC) were isolated from buffy coats. […] The PBMC were suspended in RPMI1640 with 2% foetal calf serum (FCS), pen/strep and 2 mM L-glutamine at a concentration of 5×105 c/ml. The cells were pre-incubated for 30 minutes with the test compounds in 96 well tissue culture plates and stimulated for 18 hours with lipopolysaccharide […] (Sigma). The level of TNFα was measured in the culture supernatant by enzyme immuno assays using primary and secondary biotinylated antibodies from R&D systems.

Chain of Human recombinant PDE4 (Q08499 other isoform, or with tags, fused parts or gaps): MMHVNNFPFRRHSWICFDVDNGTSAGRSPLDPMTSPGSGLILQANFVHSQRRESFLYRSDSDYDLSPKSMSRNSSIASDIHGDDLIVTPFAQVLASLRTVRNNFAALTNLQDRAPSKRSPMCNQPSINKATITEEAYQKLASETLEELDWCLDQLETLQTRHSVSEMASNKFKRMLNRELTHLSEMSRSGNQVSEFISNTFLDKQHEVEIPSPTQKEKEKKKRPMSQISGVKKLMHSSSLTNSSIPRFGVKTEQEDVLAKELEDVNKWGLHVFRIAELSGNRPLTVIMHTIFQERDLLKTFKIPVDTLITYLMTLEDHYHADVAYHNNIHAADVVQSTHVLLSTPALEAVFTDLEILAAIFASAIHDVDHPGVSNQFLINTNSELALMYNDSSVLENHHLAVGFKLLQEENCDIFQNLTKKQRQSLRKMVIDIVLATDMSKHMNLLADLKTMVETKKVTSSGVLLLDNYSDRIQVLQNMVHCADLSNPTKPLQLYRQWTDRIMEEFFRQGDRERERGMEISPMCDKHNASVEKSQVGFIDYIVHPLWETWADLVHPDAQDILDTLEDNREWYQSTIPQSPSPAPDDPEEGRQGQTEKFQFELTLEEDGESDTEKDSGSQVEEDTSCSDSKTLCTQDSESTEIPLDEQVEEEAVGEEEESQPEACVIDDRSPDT

Row | IC50 (Human recombinant PDE4) | SMILES | IC50 [1]
1 | 3 nM | COc1ccc(C(=O)Cc2c(Cl)cncc2Cl)n2nc(C3(C(N)=O)CC3)nc12 [Compound 118, 1-{5-[2-(3,5-Dichloro-pyridin-4-yl)-acetyl]-8-methoxy-[1,2,4]triazolo[1,5-a]pyridin-2-yl}-cyclopropanecarboxylic acid amide] | 2 nM
2 | 305 nM | COc1ccc(C(=O)Cc2c(Cl)cncc2Cl)n2nc(CO)nc12 [Compound 105, 2-(3,5-Dichloro-pyridin-4-yl)-1-(2-hydroxymethyl-8-methoxy-[1,2,4]triazolo[1,5-a]pyridin-5-yl)-ethanone] | 603 nM
3 | 3600 nM | COc1ccc(C(=O)Cc2ccnc3ccccc23)n2nc(C3(CO)CC3)nc12 [Compound 121, 1-[2-(1-Hydroxymethyl-cyclopropyl)-8-methoxy-[1,2,4]triazolo[1,5-a]pyridin-5-yl]-2-quinolin-4-yl-ethanone] | 2100 nM
4 | 261 nM | COc1ccc(C(=O)Cc2ccncc2)n2nc(C3(CO)CC3)nc12 [Compound 122, 1-[2-(1-Hydroxymethyl-cyclopropyl)-8-methoxy-[1,2,4]triazolo[1,5-a]pyridin-5-yl]-2-pyridin-4-yl-ethanone] | 139 nM
5 | 0.7 nM | COc1ccc(C(=O)Cc2c(Cl)cncc2Cl)n2nc(C3(C(=O)NCc4cccnc4)CC3)nc12 [Compound 113, 1-{5-[2-(3,5-Dichloro-pyridin-4-yl)-acetyl]-8-methoxy-[1,2,4]triazolo[1,5-a]pyridin-2-yl}-cyclopropanecarboxylic acid (pyridin-3-ylmethyl)-amide] | 0.5 nM
6 | 1 nM | COc1ccc(C(=O)Cc2c(Cl)cncc2Cl)n2nc(C3(C(=O)NCc4ccccn4)CC3)nc12 [Compound 112, 1-{5-[2-(3,5-Dichloro-pyridin-4-yl)-acetyl]-8-methoxy-[1,2,4]triazolo[1,5-a]pyridin-2-yl}-cyclopropanecarboxylic acid (pyridin-2-ylmethyl)-amide] | 0.6 nM
7 | 68 nM | COc1ccc(C(=O)Cc2c(Br)cncc2Br)n2nc(C3(CO)CC3)nc12 [Compound 123, 2-(3,5-Dibromo-pyridin-4-yl)-1-[2-(1-hydroxymethyl-cyclopropyl)-8-methoxy-[1,2,4]triazolo[1,5-a]pyridin-5-yl]-ethanone] | 15 nM
8 | 0.5 nM | COc1ccc(C(=O)Cc2c(Cl)cncc2Cl)n2nc(C3(C(=O)NCc4ccccc4)CC3)nc12 [Compound 110, 1-{5-[2-(3,5-Dichloro-pyridin-4-yl)-acetyl]-8-methoxy-[1,2,4]triazolo[1,5-a]pyridin-2-yl}-cyclopropanecarboxylic acid benzylamide] | 0.7 nM
9 | 0.2 nM | COc1ccc(C(=O)Cc2c(Cl)cncc2Cl)n2nc(C3(C(=O)NCC(C)(C)C)CC3)nc12 [Compound 115, 1-{5-[2-(3,5-Dichloro-pyridin-4-yl)-acetyl]-8-methoxy-[1,2,4]triazolo[1,5-a]pyridin-2-yl}-cyclopropanecarboxylic acid (2,2-dimethyl-propyl)-amide] | 
10 | 4 nM | COc1ccc(C(=O)Cc2c(Cl)cncc2Cl)n2nc(C3(CO)CC3)nc12 [Compound 106, 2-(3,5-Dichloro-pyridin-4-yl)-1-[2-(1-hydroxymethyl-cyclopropyl)-8-methoxy-[1,2,4]triazolo[1,5-a]pyridin-5-yl]-ethanone] | 5 nM
11 | 52 nM | COc1ccc(C(=O)Cc2ccncc2Br)n2nc(C3(CO)CC3)nc12 [Compound 124, 2-(3-Bromo-pyridin-4-yl)-1-[2-(1-hydroxymethyl-cyclopropyl)-8-methoxy-[1,2,4]triazolo[1,5-a]pyridin-5-yl]-ethanone] | 115 nM
12 | 0.1 nM | COc1ccc(C(=O)Cc2c(Cl)cncc2Cl)n2nc(C3(C(=O)NC4CCCC4)CC3)nc12 [Compound 116, 1-{5-[2-(3,5-Dichloro-pyridin-4-yl)-acetyl]-8-methoxy-[1,2,4]triazolo[1,5-a]pyridin-2-yl}-cyclopropanecarboxylic acid cyclopentylamide] | 
13 |  | COc1ccc(C(=O)Cc2ccccc2Cl)n2nc(C3CC3)nc12 [Compound 127, 2-(2-Chloro-phenyl)-1-(2-cyclopropyl-8-methoxy-[1,2,4]triazolo[1,5-a]pyridin-5-yl)-ethanone] | 105 nM
14 | 548 nM | COc1ccc(C(=O)Cc2nccnc2Cl)n2nc(C3(CO)CC3)nc12 [Compound 126, 2-(3-Chloro-pyrazin-2-yl)-1-[2-(1-hydroxymethyl-cyclopropyl)-8-methoxy-[1,2,4]triazolo[1,5-a]pyridin-5-yl]-ethanone] | 712 nM
15 | 24 nM | COc1ccc(C(=O)Cc2c(Cl)cncc2Cl)n2nc(C3(C(=O)N4CCOCC4)CC3)nc12 [Compound 109, 2-(3,5-Dichloro-pyridin-4-yl)-1-{8-methoxy-2-[1-(morpholine-4-carbonyl)-cyclopropyl]-[1,2,4]triazolo[1,5-a]pyridin-5-yl}-ethanone] | 29 nM
16 | 45 nM | COc1ccc(C(=O)Cc2c(Cl)cncc2Cl)n2nc(C)nc12 [Compound 107, 2-(3,5-Dichloro-pyridin-4-yl)-1-(8-methoxy-2-methyl-[1,2,4]triazolo[1,5-a]pyridin-5-yl)-ethanone] | 117 nM
17 | 26 nM | COc1ccc(C(=O)Cc2c(Cl)cncc2Cl)n2nc(COCc3ccccc3)nc12 [Compound 104, 1-(2-Benzyloxymethyl-8-methoxy-[1,2,4]triazolo[1,5-a]pyridin-5-yl)-2-(3,5-dichloro-pyridin-4-yl)-ethanone] | 66 nM
18 |  | COc1ccc(C(=O)Cc2c(Cl)c[n+]([O-])cc2Cl)n2nc(C3CC3)nc12 [Compound 128, 1-(2-Cyclopropyl-8-methoxy-[1,2,4]triazolo[1,5-a]pyridin-5-yl)-2-(3,5-dichloro-1-oxy-pyridin-4-yl)-ethanone] | 5 nM
19 | 8 nM | COc1ccc(C(=O)Cc2c(Cl)cncc2Cl)n2nc(C3(CNCc4ccccc4)CC3)nc12 [Compound 119, 1-{2-[1-(Benzylamino-methyl)-cyclopropyl]-8-methoxy-[1,2,4]triazolo[1,5-a]pyridin-5-yl}-2-(3,5-dichloro-pyridin-4-yl)-ethanone] | 13 nM
20 | 2500 nM | COc1ccc(C(=O)Cc2cnccn2)n2nc(C3(CO)CC3)nc12 [Compound 120, 1-[2-(1-Hydroxymethyl-cyclopropyl)-8-methoxy-[1,2,4]triazolo[1,5-a]pyridin-5-yl]-2-pyrazin-2-yl-ethanone] | 2200 nM
21 | 55 nM | COc1ccc(C(=O)Cc2c(Cl)cncc2Cl)n2nc(C3(C(=O)O)CC3)nc12 [Compound 108, 1-{5-[2-(3,5-Dichloro-pyridin-4-yl)-acetyl]-8-methoxy-[1,2,4]triazolo[1,5-a]pyridin-2-yl}-cyclopropanecarboxylic acid] | 
22 | 0.4 nM | COc1ccc(C(=O)Cc2c(Cl)cncc2Cl)n2nc(C3(C(=O)NCc4ccncc4)CC3)nc12 [Compound 114, 1-{5-[2-(3,5-Dichloro-pyridin-4-yl)-acetyl]-8-methoxy-[1,2,4]triazolo[1,5-a]pyridin-2-yl}-cyclopropanecarboxylic acid (pyridin-4-ylmethyl)-amide] | 0.2 nM
23 | 3100 nM | COc1ccc(C(=O)Cc2ccnc(C#N)c2)n2nc(C3(CO)CC3)nc12 [Compound 125, 4-{2-[2-(1-Hydroxymethyl-cyclopropyl)-8-methoxy-[1,2,4]triazolo[1,5-a]pyridin-5-yl]-2-oxo-ethyl}-pyridine-2-carbonitrile] | 4800 nM
24 | 7 nM | COc1ccc(C(=O)Cc2c(Cl)cncc2Cl)n2nc(-c3ccco3)nc12 [Compound 103, 2-(3,5-Dichloro-pyridin-4-yl)-1-(2-furan-2-yl-8-methoxy-[1,2,4]triazolo[1,5-a]pyridin-5-yl)-ethanone] | 27 nM

Row | SMILES | IC50 (Human recombinant PDE4) | IC50 [1]
25 | COc1ccc(C(=O)Cc2c(Cl)cncc2Cl)n2ncnc12 [Compound 102, 2-(3,5-Dichloro-pyridin-4-yl)-1-(8-methoxy-[1,2,4]triazolo[1,5-a]pyridin-5-yl)-ethanone] | 134 nM | 291 nM
26 | COc1ccc(C(=O)Cc2c(Cl)cncc2Cl)n2nc(C3CC3)nc12 [Compound 101, 1-(2-cyclopropyl-8-methoxy-[1,2,4]triazolo[1,5-a]pyridin-5-yl)-2-(3,5-dichloro-pyridin-4-yl)-ethanone] | 2 nM | 3 nM
